Laboratory results: patent US7192746B2, “α-Isomaltosyltransferase, process for producing the same and use thereof” (Kabushiki Kaisha Hayashibara Seibutsu Kagaku Kenkyujo, priority 2000, dated 2007)

Tests used:
[1] = system: α-isomaltosyl-transferring enzyme from Bacillus globisporus C9; assay: Formation of cyclotetrasaccharide from components A, B and C; format: biochemical; conditions: Enzyme of Strain C9; for Saccharide composition, remaining Substrate: 1% (w/v) substrate, pH 6.0, 1 unit/g substrate; for Saccharide composition, remaining Substrate / Saccharide composition, Cyclotetrasaccharide / Saccharide composition, Glucose / Saccharide composition, Others: 35° C., 8 hours
Method: (§1) Using a purified α-isomaltosyl-transferring enzyme, the formation of cyclotetrasaccharide from the above-identified components A, B and C was examined as follows: One percent (w/v) of an aqueous solution (pH 6.0) of the component A (3-O-α-isomaltosylpanose represented by Chemical Formula 1), the component B (4-O-α-isomaltosylpanose represented by Chemical Formula 2), or the component C (1-O-α-isomaltosyl-β-panoside represented by Chemical Formula 3) was prepared into a substrate solution. To each of the resulting solutions was added one unit/g substrate of a purified specimen of α-isomaltosyl-transferring enzyme from Bacillus globisporus C9 obtained by the method in Experiment 4, or Bacillus globisporus C11 obtained by the method in Experiment 7, followed by enzymatic reaction at 35° C. for eight hours. Thereafter, the resulting mixtures were analyzed on HPLC for saccharide composition (%).

[2] = system: α-isomaltosyl-transferring enzyme from Bacillus globisporus C11; assay: as above; format: biochemical; conditions: Enzyme of Strain C11; for Saccharide composition, remaining Substrate: 1% (w/v) substrate, pH 6.0, 1 unit/g substrate; for Saccharide composition, remaining Substrate / Saccharide composition, Cyclotetrasaccharide / Saccharide composition, Glucose / Saccharide composition, Others: 35° C., 8 hours
Method: as §1

SMILES	Saccharide composition, remaining Substrate [1] [%]	Saccharide composition, Cyclotetrasaccharide [1] [%]	Saccharide composition, Glucose [1] [%]	Saccharide composition, Others [1] [%]	Molar ratio of the formed glucose and cyclotetrasaccharide: cyclotetrasaccharide ([1]; numeral in parenthesis)	Molar ratio of the formed glucose and cyclotetrasaccharide: glucose ([1]; numeral in parenthesis)	Saccharide composition, remaining Substrate [2] [%]	Saccharide composition, Cyclotetrasaccharide [2] [%]	Saccharide composition, Glucose [2] [%]	Saccharide composition, Others [2] [%]	Molar ratio of the formed glucose and cyclotetrasaccharide: cyclotetrasaccharide ([2]; numeral in parenthesis)	Molar ratio of the formed glucose and cyclotetrasaccharide: glucose ([2]; numeral in parenthesis)
OC[C@H]1O[C@H](OC[C@H]2O[C@H](O[C@@H]3[C@@H](O)[C@@H](OC[C@H]4O[C@H](O[C@H]5[C@H](O)[C@@H](O)C(O)O[C@@H]5CO)[C@H](O)[C@@H](O)[C@@H]4O)O[C@H](CO)[C@H]3O)[C@H](O)[C@@H](O)[C@@H]2O)[C@H](O)[C@@H](O)[C@@H]1O (stereo partly drawn) [Component A, 3-O-α-isomaltosylpanose]	9.3	67.6	17.2	5.9	(1.09)	(1.00)	9.0	67.4	17.4	6.2	(1.08)	(1.00)
OC[C@H]1O[C@H](OC[C@H]2O[C@H](O[C@H]3[C@H](O)[C@@H](O)[C@@H](OC[C@H]4O[C@H](O[C@H]5[C@H](O)[C@@H](O)C(O)O[C@@H]5CO)[C@H](O)[C@@H](O)[C@@H]4O)O[C@@H]3CO)[C@H](O)[C@@H](O)[C@@H]2O)[C@H](O)[C@@H](O)[C@@H]1O (stereo partly drawn) [Component B, 4-O-α-isomaltosylpanose]	77.1	5.1	0.7	17.1	–	–	77.0	5.0	0.6	17.4	–	–
OC[C@H]1O[C@H](OC[C@H]2O[C@H](O[C@@H]3O[C@H](CO)[C@@H](O[C@H]4O[C@H](CO[C@H]5O[C@H](CO)[C@@H](O)[C@H](O)[C@H]5O)[C@@H](O)[C@H](O)[C@H]4O)[C@H](O)[C@H]3O)[C@H](O)[C@@H](O)[C@@H]2O)[C@H](O)[C@@H](O)[C@@H]1O [Component C, 1-O-α-isomaltosyl-β-panoside]	55.8	6.0	0.2	38.0	–	–	56.0	5.9	0.2	37.9	–	–
